According to patent US6740662B1, “Naphthyridine derivatives” (Yamanouchi Pharmaceutical Co., Ltd., priority 1999, dated 2004):
Where a name gives a salt, the structure may show the parent alone.

SMILES | melting point
CCn1c(=O)c(C2CCNCC2)c(-c2cccc(Cl)c2)c2ccc(C)nc21 (as salt: fumarate) [Example 28, 4-(3-chlorophenyl)-1-ethyl-7-methyl-3-(piperidin-4-yl)-1,8-naphthyridin-2(1H)-one monofumarate] | 225 to 227 °C
CCOC(=O)c1c(-c2cccc(Cl)c2)c2ccc(C)nc2n(CC)c1=O [Example 1, ethyl 4-(3-chlorophenyl)-1-ethyl-7-methyl-2-oxo-1,2-dihydro-1,8-naphthyridin-3-carboxylate] | 119 to 121 °C
CCn1c(=O)c(C(N)=O)c(-c2cccc(Cl)c2)c2ccc(C)nc21 [Example 4, 4-(3-chlorophenyl)-1-ethyl-7-methyl-2-oxo-1,2-dihydro-1,8-naphthyridin-3-carboxamide] | 249 to 252 °C
CCn1c(=O)c(CCC(=O)N(C)C)c(-c2cccc(Cl)c2)c2ccc(C)nc21 [Example 6, 3-[4-(3-chlorophenyl)-1-ethyl-7-methyl-2-oxo-1,2-dihydro-1,8-naphthyridin-3-yl]-N,N-dimethylpropanamide] | 134 to 136 °C
CCOC(=O)Nc1c(-c2cccc(Cl)c2)c2ccc(C)nc2n(CC)c1=O [Example 9, ethyl N-[4-(3-chlorophenyl)-1-ethyl-7-methyl-2-oxo-1,2-dihydro-1,8-naphthyridin-3-yl]carbamate] | 183 to 184 °C
CCn1c(=O)c(N)c(-c2cccc(Cl)c2)c2ccc(C)nc21 [Example 10, 3-amino-4-(3-chlorophenyl)-1-ethyl-7-methyl-1,8-naphthyridin-2(1H)-one] | 167 to 171 °C
CCn1c(=O)c(CCCNS(C)(=O)=O)c(-c2cccc(Cl)c2)c2ccc(C)nc21 [Example 14, N-{3-[4-(3-chlorophenyl)-1-ethyl-7-methyl-2-oxo-1,2-dihydro-1,8-naphthyridin-3-yl]propyl}methanesulfonamide] | 140 to 141 °C
CCn1c(=O)c(CCCO)c(-c2cccc(Cl)c2)c2ccc(C)nc21 [Example 16, 4-(3-chlorophenyl)-1-ethyl-3-(3-hydroxypropyl)-7-methyl-1,8-naphthyridin-2(1H)-one] | 109 to 110 °C
CCn1c(=O)c(CCCOC(=O)OC)c(-c2cccc(Cl)c2)c2ccc(C)nc21 [Example 34, 4-(3-chlorophenyl)-1-ethyl-3-[3-(methoxycarbonyloxy)propyl]-7-methyl-1,8-naphthyridin-2(1H)-one] | 92 to 93 °C

Next, values leading:

melting point | SMILES
228 to 230 °C | CCn1c(=O)c(CCC(=N)N)c(-c2cccc(Cl)c2)c2ccc(C)nc21 (as salt: hydrochloride) [Example 40, 3-(2-amidinoethyl)-4-(3-chlorophenyl)-1-ethyl-7-methyl-1,8-naphthyridin-2(1H)-one monohydrochloride]
146 to 148 °C | CCn1c(=O)c(CCCC(=O)O)c(-c2cccc(Cl)c2)c2ccc(C)nc21 (hydrate or solvate) [Example 61, 4-[4-(3-chlorophenyl)-1-ethyl-7-methyl-2-oxo-1,2-dihydro-1,8-naphthyridin-3-yl]butanoic acid]
96 to 97 °C | CCn1c(=O)c(CCCOC)c(-c2cccc(Cl)c2)c2ccc(C)nc21 [Example 35, 4-(3-chlorophenyl)-1-ethyl-3-(3-methoxypropyl)-7-methyl-1,8-naphthyridin-2(1H)-one]
142 to 146 °C | CCn1c(=O)c(CCN2CCC(C(=O)O)CC2)c(-c2cccc(Cl)c2)c2ccc(C)nc21 [Example 38, 1-{2-[4-(3-chlorophenyl)-1-ethyl-7-methyl-2-oxo-1,2-dihydro-1,8-naphthyridin-3-yl]ethyl}piperidine-4-carboxylic acid]
157 to 160 °C | CCn1c(=O)c(CCC(=O)O)c(-c2cccc(Cl)c2)c2ccc(CO)nc21 [Example 42, 3-[4-(3-chlorophenyl)-1-ethyl-7-hydroxymethyl-2-oxo-1,2-dihydro-1,8-naphthyridin-3-yl]propanoic acid]
202 to 204 °C | CCn1c(=O)c(CCC(=O)O)c(-c2cccc(Cl)c2)c2ccc(NC)nc21 [Example 44, 3-[4-(3-chlorophenyl)-1-ethyl-7-methylamino-2-oxo-1,2-dihydro-1,8-naphthyridin-3-yl]propanoic acid]
161 to 162 °C | CCn1c(=O)c(CCC(=O)O)c(-c2cccc(Br)c2)c2ccc(C)nc21 [Example 46, 3-[4-(3-bromophenyl)-1-ethyl-7-methyl-2-oxo-1,2-dihydro-1,8-naphthyridin-3-yl]propanoic acid]
155 to 158 °C | CCn1c(=O)c(CCCc2nnn[nH]2)c(-c2cccc(Cl)c2)c2ccc(C)nc21 [Example 70, 4-(3-chlorophenyl)-1-ethyl-7-methyl-3-[3-(1H-tetrazol-5-yl)propyl]-1,8-naphthyridin-2(1H)-one]
188 to 189 °C | CCn1c(=O)c(CCC(=O)O)c(-c2cccs2)c2ccc(C)nc21 [Example 78]
194 to 196 °C | CCn1c(=O)c(CCc2nnn[nH]2)c(-c2cccc(Br)c2)c2ccc(C)nc21 [Example 80]
